For 35 compounds, IC50 results are on record in patent US20190142810A1, “MITOCHONDRIAL INHIBITORS FOR THE TREATMENT OF PROLIFERATION DISORDERS” (Basilea Pharmaceutica International AG, priority 2016, published 2019).

The subject of one assay is HeLa galactose cells. Briefly: Cell growth and proliferation assay of HeLa galactose cells (crystal violet). The assay is classed as cell-based. Particulars: Homo sapiens, HeLa, 72 h, 72 hours incubation, crystal violet staining, absorbance at 590 nm. A digest of the protocol:
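HeLa cells adapted stepwise over three weeks to glucose-free galactose medium plus 10 mM galactose, seeded at 2000 cells/well and treated 72 h with compounds (0.001% DMSO) at 37° C. Growth read by crystal violet staining, dye solubilized and absorbance at 590 nm; IC50 from concentration-response curves.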

In assay [1] the test system is Oxygen consumption (mitochondrial function). The assay can be described thus: Oxygen consumption assay (MitoXpress probe). The note with it: 5 h, MitoXpress probe signal, kinetic analysis at 37° C. for 5 hours, compared to untreated cells. The class given is cell-based. The source says:
Oxygen consumption is one of the most informative and direct measures of mitochondrial function and can be measured, for example, by using the MitoXpress® assay (Luxcel MX-2001, Luxcel Biosciences). The MitoXpress® probe is one of a family of phosphorescent oxygen sensitive probes. The assay exploits the ability of oxygen to quench the excited state of the MitoXpress® probe. As the test material respires (i.e. the cells), oxygen is depleted in the surrounding solution/environment, which increases the probe phosphorescence signal. Changes in oxygen consumption reflecting changes in mitochondrial activity are seen as changes in the MitoXpress® probe signal over time.
Cells were seeded in 96 well black plates with transparent bottoms (Greiner Bio-One cat. no. 655090) at a density of 50′000 cells/well in a final volume of 100 μL. After 24 hours the incubation media was removed and 150 μL of fresh media containing inhibitors at different concentrations was added to each well. Then, 10 μL of MitoXpress® and 150 μL mineral oil were added per well. Reading from the top of the plate, kinetic analysis was performed at 37° C. for 5 hours using a Synergy 4 plate reader (BioTek) and Time-resolved Fluoresence (TRF) wavelengths of 380/11 nm excitation and 650/20 nm emission or 665/40 emission (30 microsecond delay time, 100 microsecond integration time, gain or sensitivity settings set at either medium or high). IC50s were calculated as the concentration that inhibits 50% of the phosphorescent oxygen sensitive probe signal (MitoXpress®) as compared to untreated cells.

As usually defined, the IC50 is the midpoint of a concentration-inhibition curve. With `Cc1nsc(NC(=O)N2CCC(=Cc3ccc(F)cc3F)CC2)n1` [Example 59, 4-[(2,4-difluorophenyl)methylene]-N-(3-methyl-1,2,4-thiadiazol-5-yl)piperidine-1-carboxamide], the half-maximal inhibitory concentration (IC50) came to 41 nM with HeLa galactose cells and 43 nM in assay [1].

As for `Cc1nsc(NC(=O)N2CCC(Cc3ccc(F)cc3F)CC2)n1` [Example 60, 4-[(2,4-difluorophenyl)methyl]-N-(3-methyl-1,2,4-thiadiazol-5-yl)piperidine-1-carboxamide], the results for the IC50 (with HeLa galactose cells; in assay [1]) were 53 nM and 68 nM, respectively.

In the case of `Cc1nsc(NC(=O)N2CCC(Cc3ncc(Cl)cc3F)CC2)n1` [Example 62], the concentration for half-maximal inhibition (IC50) in the assay on HeLa galactose cells came out at 57 nM; in assay [1], 122 nM.

Regarding `Cc1cc(NC(=O)N2CCC(Cc3ccc(Cl)cc3F)CC2)sn1` [Example 63, 4-[(4-chloro-2-fluoro-phenyl)methyl]-N-(3-methylisothiazol-5-yl)piperidine-1-carboxamide], the values for the IC50 (in the assay with HeLa galactose cells; in assay [1]) were 20 nM and 56 nM, respectively.

Consider `Cc1nsc(NC(=O)N2CCC(Cc3cc(C)c(Cl)cc3F)CC2)n1` [Example 64], for which the half-inhibitory concentration (IC50) turned out to be 89 nM in the assay on HeLa galactose cells and 187 nM in assay [1].

For `COc1cc(CC2CCN(C(=O)Nc3nc(C)ns3)CC2)c(F)cc1Cl` [Example 65], the results for the concentration for half-maximal inhibition (IC50) (in the assay with HeLa galactose cells; in assay [1]) were 50 nM and 126 nM, respectively.

As for `Cc1nsc(NC(=O)N2CCC(Cc3c(F)cc(Cl)cc3Cl)CC2)n1` [Example 66], the half-maximal inhibitory concentration (IC50) in the assay on HeLa galactose cells turned out to be 67 nM; in assay [1], 119 nM.

Take `Cc1nsc(NC(=O)N2CCC(=Cc3ncc(Cl)cc3F)CC2)n1` [Example 67]: the IC50 amounted to 125 nM in the assay on HeLa galactose cells and 233 nM in assay [1].

As to `COc1cc(F)c(CC2CCN(C(=O)Nc3nc(C)ns3)CC2)cn1` [Example 68], the 50% inhibitory concentration (IC50) stood at 100 nM in the assay with HeLa galactose cells and 179 nM in assay [1].

Turning to `COc1cc(F)c(C=C2CCN(C(=O)Nc3nc(C)ns3)CC2)cn1` [Example 69], the IC50 with HeLa galactose cells stood at 91 nM; in assay [1] it was 119 nM.

Turning to `CCc1nsc(NC(=O)N2CCC(Cc3ccc(Cl)cc3F)CC2)n1` [Example 70, 4-[(4-chloro-2-fluoro-phenyl)methyl]-N-(3-ethyl-1,2,4-thiadiazol-5-yl)piperidine-1-carboxamide], the IC50 in the assay with HeLa galactose cells is 30 nM; in assay [1], 65 nM.

With `Cc1nccc(NC(=O)N2CCC(Cc3ccc(Cl)cc3F)CC2)n1` [Example 71], the concentration for half-maximal inhibition (IC50) worked out at 227 nM in the assay with HeLa galactose cells and 338 nM in assay [1].

In the case of `Cc1cc(NC(=O)N2CCC(Cc3ccc(Cl)cc3F)CC2)ccn1` [Example 72, 4-[(4-chloro-2-fluoro-phenyl)methyl]-N-(2-methyl-4-pyridyl)piperidine-1-carboxamide], the IC50 with HeLa galactose cells was 34 nM; in assay [1], 68 nM.

As to `Cc1nsc(NC(=O)N2CCC(C(=O)c3ccc(Cl)cc3)CC2)n1` [Example 74, 4-(4-chlorobenzoyl)-N-(3-methyl-1,2,4-thiadiazol-5-yl)piperidine-1-carboxamide], the IC50 was 34 nM with HeLa galactose cells and 51 nM in assay [1].

In the case of `Cc1nsc(NC(=O)N2CCC(C(=O)c3ccc(F)cc3F)CC2)n1` [Example 75, 4-(2,4-difluorobenzoyl)-N-(3-methyl-1,2,4-thiadiazol-5-yl)piperidine-1-carboxamide], the results for the 50% inhibitory concentration (IC50) (in the assay with HeLa galactose cells; in assay [1]) were 54 nM and 59 nM, respectively.

In the case of `COc1ccc(C(=O)C2CCN(C(=O)Nc3nc(C)ns3)CC2)cc1` [Example 76], the figures for the IC50 (in the assay on HeLa galactose cells; in assay [1]) were 190 nM and 332 nM, respectively.

In the case of `Cc1nsc(NC(=O)N2CCC(C(=O)c3ccc(Br)cc3)CC2)n1` [Example 77, 4-(4-bromobenzoyl)-N-(3-methyl-1,2,4-thiadiazol-5-yl)piperidine-1-carboxamide], the results for the IC50 (in the assay with HeLa galactose cells; in assay [1]) were 48 nM and 54 nM, respectively.

Regarding `O=C(Nc1nc(CCO)ns1)N1CCC(=Cc2ccc(Cl)cc2F)CC1` [Example 78, 4-[(4-chloro-2-fluoro-phenyl)methylene]-N-[3-(2-hydroxyethyl)-1,2,4-thiadiazol-5-yl]piperidine-1-carboxamide], the IC50 in the assay with HeLa galactose cells was determined as 163 nM; in assay [1], 267 nM.

Consider `O=C(Nc1nc(CCN2CCOCC2)ns1)N1CCC(=Cc2ccc(Cl)cc2F)CC1` [Example 79, 4-[(4-chloro-2-fluoro-phenyl)methylene]-N-[3-(2-morpholinoethyl)-1,2,4-thiadiazol-5-yl]piperidine-1-carboxamide], for which the results for the IC50 (in the assay on HeLa galactose cells; in assay [1]) were 279 nM and 378 nM, respectively.

Regarding `N#CCCc1nsc(NC(=O)N2CCC(=Cc3ccc(Cl)cc3F)CC2)n1` [Example 80, 4-[(4-chloro-2-fluoro-phenyl)methylene]-N-[3-(2-cyanoethyl)-1,2,4-thiadiazol-5-yl]piperidine-1-carboxamide], the IC50 in the assay with HeLa galactose cells came to 134 nM; in assay [1], 108 nM.

In the case of `Cc1nsc(NC(=O)N2CC/C(=C\c3ccc(Cl)cc3F)C(C)C2)n1` (stereo not shown) [Example 82, (4E)-4-[(4-chloro-2-fluoro-phenyl)methylene]-3-methyl-N-(3-methyl-1,2,4-thiadiazol-5-yl)piperidine-1-carboxamide], the IC50 in the assay on HeLa galactose cells was 31 nM; in assay [1] it was 78 nM.

For the compound `Cc1nsc(NC(=O)N2CC/C(=C/c3ccc(Cl)cc3F)C(C)C2)n1` (stereo not shown) [Example 83, (4Z)-4-[(4-chloro-2-fluoro-phenyl)methylene]-3-methyl-N-(3-methyl-1,2,4-thiadiazol-5-yl)piperidine-1-carboxamide], the IC50 in the assay on HeLa galactose cells came out at 115 nM; in assay [1], 329 nM.

Consider `Cc1nsc(NC(=O)N2CC/C(=C\c3ccc(Cl)cc3F)C(C)(C)C2)n1` [Example 85, (4E)-4-[(4-chloro-2-fluoro-phenyl)methylene]-3,3-dimethyl-N-(3-methyl-1,2,4-thiadiazol-5-yl)piperidine-1-carboxamide], for which the IC50 came to 38 nM in the assay on HeLa galactose cells and 83 nM in assay [1].

As to `Cc1nsc(NC(=O)N2CC/C(=C\c3ccc(Cl)cc3F)CC2C)n1` (stereo not shown) [Example 86, (4E)-4-[(4-chloro-2-fluoro-phenyl)methylene]-2-methyl-N-(3-methyl-1,2,4-thiadiazol-5-yl)piperidine-1-carboxamide], the IC50 with HeLa galactose cells turned out to be 21 nM; in assay [1], 61 nM.

Turning to `Cc1nsc(NC(=O)N2CC/C(=C/c3ccc(Cl)cc3F)CC2C(C)C)n1` (stereo not shown) [Example 87], the results for the half-maximal inhibitory concentration (IC50) (in the assay with HeLa galactose cells; in assay [1]) were 262 nM and 335 nM, respectively.

Take `Cc1nsc(NC(=O)N2CCC(=Cc3ccc(CO)cc3F)CC2)n1` [Example 89, 4-[[2-fluoro-4-(hydroxymethyl)phenyl]methylene]-N-(3-methyl-1,2,4-thiadiazol-5-yl)piperidine-1-carboxamide]: the concentration for half-maximal inhibition (IC50) is 228 nM in the assay with HeLa galactose cells and 352 nM in assay [1].

As to `Cc1nsc(NC(=O)N2CCC(C(=O)c3ccc(Cl)cc3F)CC2)n1` [Example 92, 4-(4-chloro-2-fluoro-benzoyl)-N-(3-methyl-1,2,4-thiadiazol-5-yl)piperidine-1-carboxamide], the 50% inhibitory concentration (IC50) with HeLa galactose cells was determined as 57 nM; in assay [1] it was 62 nM.

On to `COCc1ccc(C=C2CCN(C(=O)Nc3nc(C)ns3)CC2)c(F)c1` [Example 93, 4-[[2-fluoro-4-(methoxymethyl)phenyl]methylene]-N-(3-methyl-1,2,4-thiadiazol-5-yl)piperidine-1-carboxamide], for which the IC50 in the assay with HeLa galactose cells worked out at 56 nM; in assay [1] it was 63 nM.

For the compound `O=C(Nc1ccncc1)N1CCC(=Cc2ccc(Cl)cc2F)CC1` [Example 94], the half-inhibitory concentration (IC50) with HeLa galactose cells turned out to be 97 nM; in assay [1] it was 159 nM.

With `Cc1nsc(NC(=O)N2CCC(=Cc3c(F)cc(C#N)cc3F)CC2)n1` [Example 95, 4-[(4-cyano-2,6-difluoro-phenyl)methylene]-N-(3-methyl-1,2,4-thiadiazol-5-yl)piperidine-1-carboxamide], the IC50 in the assay on HeLa galactose cells amounted to 20 nM; in assay [1], 30 nM.

In the case of `O=C(Nc1nc(CCO)ns1)N1CCC(Cc2ccc(Cl)cc2F)CC1` [Example 96], the figures for the 50% inhibitory concentration (IC50) (in the assay on HeLa galactose cells; in assay [1]) were 208 nM and 361 nM, respectively.

In the case of `COc1cc(F)c(C=C2CCN(C(=O)Nc3nc(C)ns3)CC2)c(F)c1` [Example 97, 4-[(2,6-difluoro-4-methoxy-phenyl)methylene]-N-(3-methyl-1,2,4-thiadiazol-5-yl)piperidine-1-carboxamide], the IC50 was found to be 28 nM in the assay on HeLa galactose cells and 30 nM in assay [1].

On to `COc1cc(F)c(CC2CCN(C(=O)Nc3nc(C)ns3)CC2)c(F)c1` [Example 98, 4-[(2,6-difluoro-4-methoxy-phenyl)methyl]-N-(3-methyl-1,2,4-thiadiazol-5-yl)piperidine-1-carboxamide], for which the figures for the IC50 (in the assay on HeLa galactose cells; in assay [1]) were 39 nM and 76 nM, respectively.

For `Cc1nsc(NC(=O)N2CCC(Cc3c(F)cc(O)cc3F)CC2)n1` [Example 100], the 50% inhibitory concentration (IC50) was determined as 200 nM in the assay with HeLa galactose cells and 402 nM in assay [1].

`Cc1nsc(NC(=O)N2CCC(=Cc3ccc(NCCN)cc3F)CC2)n1` [Example 101, 4-[[4-(2-aminoethylamino)-2-fluoro-phenyl]methylene]-N-(3-methyl-1,2,4-thiadiazol-5-yl)piperidine-1-carboxamide]: the concentration for half-maximal inhibition (IC50) is 251 nM in the assay with HeLa galactose cells and 412 nM in assay [1].
